Measured values published in ChEMBL document CHEMBL1152742, “Morpholine-based RGD-cyclopentapeptides as alphavbeta3/alphavbeta5 integrin ligands: role of configuration towards receptor binding affinity” (Bioorg Med Chem, 2009).

Legend:
[1] = target: Integrin alpha-V/beta-5 (Homo sapiens); assay: Displacement of [125I]echistatin from integrin alphaVbeta5 receptor in human placenta by microplate scintillation counter
Integrin alpha-V/beta-3 = Integrin alpha-V/beta-3 (Homo sapiens, UniProt P05106+P06756)
Sequence of Integrin alpha-V/beta-3 (P05106 27-788 limits assumed): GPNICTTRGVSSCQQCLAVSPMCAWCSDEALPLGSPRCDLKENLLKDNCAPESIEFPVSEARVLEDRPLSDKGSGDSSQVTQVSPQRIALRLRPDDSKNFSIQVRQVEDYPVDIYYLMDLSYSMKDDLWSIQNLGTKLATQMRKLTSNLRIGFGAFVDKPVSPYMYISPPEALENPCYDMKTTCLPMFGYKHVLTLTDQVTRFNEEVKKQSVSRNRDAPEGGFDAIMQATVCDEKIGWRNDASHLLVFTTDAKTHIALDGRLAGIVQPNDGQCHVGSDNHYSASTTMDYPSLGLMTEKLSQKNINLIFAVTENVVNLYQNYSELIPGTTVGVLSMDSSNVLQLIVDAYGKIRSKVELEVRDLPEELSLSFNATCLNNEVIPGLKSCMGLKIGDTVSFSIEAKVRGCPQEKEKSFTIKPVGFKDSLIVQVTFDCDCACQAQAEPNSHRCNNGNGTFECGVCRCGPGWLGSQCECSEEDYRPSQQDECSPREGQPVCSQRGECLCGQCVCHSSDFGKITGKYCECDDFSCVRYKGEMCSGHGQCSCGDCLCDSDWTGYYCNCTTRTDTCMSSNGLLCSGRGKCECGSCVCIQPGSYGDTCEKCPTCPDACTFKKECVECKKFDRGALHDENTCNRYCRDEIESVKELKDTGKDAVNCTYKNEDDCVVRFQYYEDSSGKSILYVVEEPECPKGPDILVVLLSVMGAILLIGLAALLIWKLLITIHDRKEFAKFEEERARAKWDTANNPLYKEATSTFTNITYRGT
Sequence of Integrin alpha-V/beta-3 (P06756 31-889 partner limits assumed): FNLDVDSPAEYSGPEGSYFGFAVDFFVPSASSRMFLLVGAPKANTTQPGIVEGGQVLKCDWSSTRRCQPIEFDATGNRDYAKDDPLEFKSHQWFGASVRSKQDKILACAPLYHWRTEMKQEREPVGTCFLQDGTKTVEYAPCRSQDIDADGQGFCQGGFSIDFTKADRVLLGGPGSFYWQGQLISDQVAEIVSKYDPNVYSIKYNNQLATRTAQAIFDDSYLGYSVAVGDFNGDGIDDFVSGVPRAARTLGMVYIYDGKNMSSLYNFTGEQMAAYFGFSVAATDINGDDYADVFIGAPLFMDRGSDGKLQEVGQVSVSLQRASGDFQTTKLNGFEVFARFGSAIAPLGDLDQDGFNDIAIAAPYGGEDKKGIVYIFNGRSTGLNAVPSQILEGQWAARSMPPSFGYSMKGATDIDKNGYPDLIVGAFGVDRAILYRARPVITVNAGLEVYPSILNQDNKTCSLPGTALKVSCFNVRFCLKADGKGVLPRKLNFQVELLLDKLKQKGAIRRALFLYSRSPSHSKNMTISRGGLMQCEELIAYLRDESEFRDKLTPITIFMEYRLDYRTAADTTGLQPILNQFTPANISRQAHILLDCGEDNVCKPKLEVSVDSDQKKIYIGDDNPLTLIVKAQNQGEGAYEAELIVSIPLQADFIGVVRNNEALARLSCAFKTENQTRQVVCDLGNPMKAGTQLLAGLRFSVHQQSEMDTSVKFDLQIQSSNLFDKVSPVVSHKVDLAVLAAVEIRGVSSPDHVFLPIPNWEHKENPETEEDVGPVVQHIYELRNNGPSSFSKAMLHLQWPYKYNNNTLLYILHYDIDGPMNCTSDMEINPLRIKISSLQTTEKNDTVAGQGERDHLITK
Sequence of Integrin alpha-V/beta-3 (P06756 891-1048 partner limits assumed): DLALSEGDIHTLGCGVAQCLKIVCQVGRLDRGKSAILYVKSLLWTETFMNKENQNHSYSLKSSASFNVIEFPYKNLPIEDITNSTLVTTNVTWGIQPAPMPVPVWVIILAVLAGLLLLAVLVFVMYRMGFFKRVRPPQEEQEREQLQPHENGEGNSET
Description: Displacement of [125I]echistatin from integrin alphaVbeta3 receptor in human placenta by microplate scintillation counter

IC50 [1]: 0.9 nM
IC50 (Integrin alpha-V/beta-3): 5.64 nM
Structure (SMILES): NC(N)=NCCC[C@@H]1NC(=O)CNC(=O)[C@H](CC(=O)O)N[C@@H]2CCC[C@@H]3CC[C@@H](C1=O)N3C2=O
